In US11311522B1 (Cavion, Inc., priority 2018, dated 2022):

Experiment: PN001/Part I: safety and tolerability
Format: in vivo, human
Excerpt: Safety was monitored throughout by adverse events, vital signs, and repeated clinical and laboratory evaluations. […] All adverse events were mild or moderate and severity and transient.

For CC(C)c1ccc(CC(=O)N[C@H](C)c2ccc(OCC(F)(F)F)cn2)cc1 [CX-8998], the Abnormal physical sensation (12 mg) was 0 n (%), the “At least 1 adverse event” value (12 mg) was 9 (75.0) n (%) and the Dizziness (12 mg) was 1 (8.3) n (%). The Drowsiness (12 mg) was 1 (8.3) n (%), the Elevated mood (12 mg) was 1 (8.3) n (%) and the Euphoric mood (12 mg) was 2 (16.7) n (%). For the same molecule, the “Eye Disorders” value (12 mg) was 1 (8.3) n (%), the Fatigue (12 mg) was 0 n (%) and the Feeling abnormal (12 mg) was 2 (16.7) n (%). For the same molecule, the Floating feeling (12 mg) was 0 n (%), the “Gastro-intestinal Disorders” value (12 mg) was 3 (25.0) n (%) and the Hangover effect (12 mg) was 0 n (%). For the same molecule, the Headache (12 mg) was 2 (16.7) n (%), the Indifference (12 mg) was 0 n (%) and the “Injury, Poisoning and Procedural Complications” value (12 mg) was 0 n (%). For the same molecule, the Insomnia (12 mg) was 0 n (%), the Intoxication (12 mg) was 0 n (%) and the Irritability (12 mg) was 0 n (%). The Lethargy (12 mg) was 1 (8.3) n (%), the “Nervous System Disorders” value (12 mg) was 5 (41.7) n (%) and the Paraesthesia (12 mg) was 0 n (%). For the same molecule, the Paraesthesia oral (12 mg) was 1 (8.3) n (%), the Paraesthesia tongue (12 mg) was 2 (16.7) n (%) and the “Psychiatric Disorders” value (12 mg) was 4 (33.3) n (%). The Racing thoughts (12 mg) was 1 (8.3) n (%), the Relaxed (12 mg) was 4 (33.3) n (%) and the Sensory disturbance (12 mg) was 0 n (%). For the same molecule, the Vision blurred (12 mg) was 0 n (%), the Visual disturbance (12 mg) was 1 (8.3) n (%) and the Vivid dreams (12 mg) was 0 n (%). The Abnormal physical sensation (12 mg evening) was 0 n (%), the “At least 1 adverse event” value (12 mg evening) was 4 (66.7) n (%) and the Dizziness (12 mg evening) was 0 n (%). The Drowsiness (12 mg evening) was 1 (16.7) n (%), the Elevated mood (12 mg evening) was 0 n (%) and the Euphoric mood (12 mg evening) was 0 n (%). For the same molecule, the “Eye Disorders” value (12 mg evening) was 3 (50.0) n (%), the Fatigue (12 mg evening) was 0 n (%) and the Feeling abnormal (12 mg evening) was 0 n (%). For the same molecule, the Floating feeling (12 mg evening) was 0 n (%), the “Gastro-intestinal Disorders” value (12 mg evening) was 1 (16.7) n (%) and the Hangover effect (12 mg evening) was 0 n (%). For the same molecule, the Headache (12 mg evening) was 1 (16.7) n (%), the Indifference (12 mg evening) was 0 n (%) and the “Injury, Poisoning and Procedural Complications” value (12 mg evening) was 0 n (%). For the same molecule, the Insomnia (12 mg evening) was 0 n (%), the Intoxication (12 mg evening) was 0 n (%) and the Irritability (12 mg evening) was 0 n (%). For the same molecule, the Lethargy (12 mg evening) was 1 (16.7) n (%), the “Nervous System Disorders” value (12 mg evening) was 3 (50.0) n (%) and the Paraesthesia (12 mg evening) was 0 n (%). The Paraesthesia oral (12 mg evening) was 0 n (%), the Paraesthesia tongue (12 mg evening) was 1 (16.7) n (%) and the “Psychiatric Disorders” value (12 mg evening) was 2 n (%). For the same molecule, the Racing thoughts (12 mg evening) was 0 n (%), the Relaxed (12 mg evening) was 0 n (%) and the Sensory disturbance (12 mg evening) was 0 n (%). For the same molecule, the Vision blurred (12 mg evening) was 0 n (%), the Visual disturbance (12 mg evening) was 3 (50.0) n (%) and the Vivid dreams (12 mg evening) was 2 n (%). The Abnormal physical sensation (16 mg evening) was 0 n (%), the “At least 1 adverse event” value (16 mg evening) was 9 (75.0) n (%) and the Dizziness (16 mg evening) was 1 (8.3) n (%). The Drowsiness (16 mg evening) was 1 (8.3) n (%), the Elevated mood (16 mg evening) was 3 (25.0) n (%) and the Euphoric mood (16 mg evening) was 3 (25.0) n (%). For the same molecule, the “Eye Disorders” value (16 mg evening) was 1 (8.3) n (%), the Fatigue (16 mg evening) was 2 (16.7) n (%) and the Feeling abnormal (16 mg evening) was 0 n (%). The Floating feeling (16 mg evening) was 1 (8.3) n (%), the “Gastro-intestinal Disorders” value (16 mg evening) was 1 (8.3) n (%) and the Hangover effect (16 mg evening) was 2 (16.7) n (%). The Headache (16 mg evening) was 4 (33.3) n (%), the Indifference (16 mg evening) was 2 (16.7) n (%) and the “Injury, Poisoning and Procedural Complications” value (16 mg evening) was 0 n (%). For the same molecule, the Insomnia (16 mg evening) was 0 n (%), the Intoxication (16 mg evening) was 0 n (%) and the Irritability (16 mg evening) was 1 (8.3) n (%). For the same molecule, the Lethargy (16 mg evening) was 1 (8.3) n (%), the “Nervous System Disorders” value (16 mg evening) was 8 (66.7) n (%) and the Paraesthesia (16 mg evening) was 1 (8.3) n (%). For the same molecule, the Paraesthesia oral (16 mg evening) was 0 n (%), the Paraesthesia tongue (16 mg evening) was 0 n (%) and the “Psychiatric Disorders” value (16 mg evening) was 8 (66.7) n (%). For the same molecule, the Racing thoughts (16 mg evening) was 2 (16.7) n (%), the Relaxed (16 mg evening) was 2 (16.7) n (%) and the Sensory disturbance (16 mg evening) was 1 (8.3) n (%). The Vision blurred (16 mg evening) was 1 (8.3) n (%), the Visual disturbance (16 mg evening) was 0 n (%) and the Vivid dreams (16 mg evening) was 8 (66.7) n (%).
